{"source": "patent US20140243401A1", "about": "“METHODS OF SCREENING COMPOUNDS THAT ARE CYTOTOXIC TO TUMOR CELLS AND METHODS OF TREATING TUMOR CELLS USING SUCH COMPOUND” (The Johns Hopkins University, priority 2010, published 2014)", "key": {"[1]": {"system": "Human breast cancer cell lines", "assay": "XTT cytotoxicity assay, human breast cancer cell lines", "format": "cell-based", "details": "5 human breast cancer cell lines, read-out: LC50 (the source's name)", "experimental": "(§1) Cytotoxicity can be easily measured using XTT assays, which provide an indication of mitochondrial activity. The XTT assay is a non-radioactive alternative for the [^51Cr] release cytotoxicity assay. XTT is a tetrazolium salt that is reduced to a formazan dye only by metabolically active, viable cells. The reduction of XTT is measured spectrophotometrically as OD490-OD650. Thus, cells that are actively metabolizing will form reaction product when subjected to XTT measurement.\n(§2) For this experiment, cells were cultured under standard culture conditions. MCF7 human breast cancer cells were cultured in DMEM containing 5 mM glucose medium with 10% fetal calf serum, 0.01 mg/ml insulin and 1% penicillin/streptomycin. To measure the cytotoxicity of specific compounds against cancer cells, 9×10^3 MCF7 cells were plated per well in 96-well plates. Following overnight culture, the compounds, dissolved in DMSO, were added to the wells in 1 μl volume at specified concentrations. Vehicle controls were run for each experiment. Each condition was run in triplicate. […] Plates were read at OD490 on a PerkinElmer Victor 1420. […]\n(§3) Using the XTT assay, LC50 values for C31 were determined for numerous human cancer cell lines and human hepatocytes, as shown in the following table: […]"}, "[2]": {"system": "Human ovarian cancer cell lines", "assay": "XTT cytotoxicity assay, human ovarian cancer cell lines", "format": "cell-based", "details": "2 human ovarian cancer cell lines, read-out: LC50 (the source's name)", "experimental": "as §1, §2, §3"}, "MCF7 cells [3]": {"system": "MCF7 cells", "assay": "JC-1 staining, mitochondrial membrane potential in MCF7 cells", "format": "cell-based, human", "description": "JC-1 staining is an indicator of mitochondrial membrane potential; with this assay, mitochondria within cells stained with this fluorescent dye emit a wavelength in the red spectrum when mitochondrial membrane potential is intact. When mitochondria are depolarized, the wavelength of the spectrum emitted changes to green. Therefore, the ratio of red/green fluorescence will give an indication of the intactness of the membrane potential of mitochondria, and thus mitochondrial function.\nMCF7 cells were cultured in 24-well plates at 1×10^4 per well and incubated overnight. Following drug inhibition the medium was removed and 1 μg/ml JC-1 (Molecular Probes) in DPBS was added to the cells. Plates were incubated for 30 min at 37° C., and washed two times with DPBS. Fluorescence from each well was measured at 530 nm/590 nm (excitation/emission) and by 485 nm/535 nm (excitation/emission) separately using PerkinElmer Victor 1420. The ratio of red to green fluorescence is a measure of mitochondrial membrane potential and thus mitochondrial function directly.\nMitochondrial membrane polarization was monitored using the procedure described above. Cells were cultured in 24-well plates at 1×10^4 per well and incubated overnight. […] Fluorescence from each well was measured at 530 nm/590 nm (excitation/emission) and by 485 nm/535 nm (excitation/emission) separately using PerkinElmer Victor 1420."}, "purified rat liver FAS": {"target": "T1, purified rat liver FAS (Rattus norvegicus, UniProt P12785)", "T1 construct": "Highly purified rat FAS was obtained from starved and induced Sprague-Dawley rat livers; from tissue; host or cells: liver of starved and induced Sprague-Dawley rats", "T1 sequence (P12785 whole entry)": "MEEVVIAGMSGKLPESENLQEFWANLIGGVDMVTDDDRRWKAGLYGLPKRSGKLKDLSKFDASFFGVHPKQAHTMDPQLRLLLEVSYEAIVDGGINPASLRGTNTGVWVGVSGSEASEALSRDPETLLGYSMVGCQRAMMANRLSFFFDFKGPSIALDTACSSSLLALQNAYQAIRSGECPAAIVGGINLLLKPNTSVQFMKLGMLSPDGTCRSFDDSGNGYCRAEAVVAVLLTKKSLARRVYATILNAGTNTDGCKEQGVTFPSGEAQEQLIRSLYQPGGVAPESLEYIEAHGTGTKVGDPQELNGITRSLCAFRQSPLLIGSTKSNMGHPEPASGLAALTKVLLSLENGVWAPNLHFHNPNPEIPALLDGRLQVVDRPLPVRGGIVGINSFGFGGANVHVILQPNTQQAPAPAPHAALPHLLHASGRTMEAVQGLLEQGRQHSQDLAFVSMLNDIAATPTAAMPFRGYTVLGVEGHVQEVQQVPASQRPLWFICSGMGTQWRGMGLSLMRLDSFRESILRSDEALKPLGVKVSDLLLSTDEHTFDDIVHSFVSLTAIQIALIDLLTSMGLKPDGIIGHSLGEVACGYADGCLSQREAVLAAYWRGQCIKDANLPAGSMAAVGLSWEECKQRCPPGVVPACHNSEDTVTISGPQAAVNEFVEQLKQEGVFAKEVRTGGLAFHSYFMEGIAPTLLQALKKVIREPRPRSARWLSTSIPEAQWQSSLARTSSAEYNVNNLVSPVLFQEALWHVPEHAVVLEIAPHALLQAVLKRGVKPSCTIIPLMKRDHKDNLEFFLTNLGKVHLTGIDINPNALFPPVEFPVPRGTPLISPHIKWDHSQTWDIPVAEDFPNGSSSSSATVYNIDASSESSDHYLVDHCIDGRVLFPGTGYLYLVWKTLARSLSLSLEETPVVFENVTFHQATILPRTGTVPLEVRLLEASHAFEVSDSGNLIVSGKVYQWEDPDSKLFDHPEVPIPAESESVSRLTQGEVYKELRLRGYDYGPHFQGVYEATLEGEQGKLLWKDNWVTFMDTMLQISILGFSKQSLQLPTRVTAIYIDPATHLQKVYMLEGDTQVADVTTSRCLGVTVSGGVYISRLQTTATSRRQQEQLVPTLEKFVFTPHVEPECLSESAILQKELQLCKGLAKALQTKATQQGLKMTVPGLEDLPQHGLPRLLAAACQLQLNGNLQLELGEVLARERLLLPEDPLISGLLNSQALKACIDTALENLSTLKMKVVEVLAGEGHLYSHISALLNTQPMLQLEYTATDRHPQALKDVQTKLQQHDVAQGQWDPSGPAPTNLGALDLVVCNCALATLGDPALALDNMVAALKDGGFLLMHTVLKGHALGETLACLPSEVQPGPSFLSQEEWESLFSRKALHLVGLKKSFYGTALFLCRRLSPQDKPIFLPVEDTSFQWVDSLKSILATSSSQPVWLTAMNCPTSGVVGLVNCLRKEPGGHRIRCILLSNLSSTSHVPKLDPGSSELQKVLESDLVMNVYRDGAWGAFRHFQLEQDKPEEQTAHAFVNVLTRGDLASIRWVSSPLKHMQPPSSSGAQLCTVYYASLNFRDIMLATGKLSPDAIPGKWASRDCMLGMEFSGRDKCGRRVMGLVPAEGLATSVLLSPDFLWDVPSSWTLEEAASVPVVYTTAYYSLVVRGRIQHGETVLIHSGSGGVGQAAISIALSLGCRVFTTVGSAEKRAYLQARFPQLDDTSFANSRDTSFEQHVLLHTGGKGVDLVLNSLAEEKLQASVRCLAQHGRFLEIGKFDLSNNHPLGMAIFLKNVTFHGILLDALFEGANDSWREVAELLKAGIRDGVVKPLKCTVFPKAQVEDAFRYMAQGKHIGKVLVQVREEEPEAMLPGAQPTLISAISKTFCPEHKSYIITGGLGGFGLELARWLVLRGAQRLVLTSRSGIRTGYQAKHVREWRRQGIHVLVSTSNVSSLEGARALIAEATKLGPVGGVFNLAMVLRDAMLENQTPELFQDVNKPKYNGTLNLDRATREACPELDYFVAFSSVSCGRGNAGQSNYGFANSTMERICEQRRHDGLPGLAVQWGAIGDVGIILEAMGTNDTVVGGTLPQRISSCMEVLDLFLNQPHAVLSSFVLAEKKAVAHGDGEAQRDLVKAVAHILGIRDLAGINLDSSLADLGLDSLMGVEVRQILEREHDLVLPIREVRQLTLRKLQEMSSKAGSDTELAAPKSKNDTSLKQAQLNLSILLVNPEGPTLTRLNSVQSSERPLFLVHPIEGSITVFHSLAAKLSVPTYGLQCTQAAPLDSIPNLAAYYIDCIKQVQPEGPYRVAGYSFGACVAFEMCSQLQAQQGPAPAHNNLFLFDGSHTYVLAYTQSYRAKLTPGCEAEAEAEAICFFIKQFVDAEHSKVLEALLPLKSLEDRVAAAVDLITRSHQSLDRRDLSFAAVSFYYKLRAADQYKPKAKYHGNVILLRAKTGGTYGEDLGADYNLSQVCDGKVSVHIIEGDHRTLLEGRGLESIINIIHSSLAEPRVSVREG", "assay": "purified rat Type I FAS, spectrophotometric NADPH oxidation", "format": "biochemical", "experimental": "Highly purified rat FAS was obtained from starved and induced Sprague-Dawley rat livers by slight modification of a published procedure.xx [Abraham, S.; Smith, S. Methods Enzymol. 1975, 35B, 65-73.]. Enzyme activity was assayed spectrophotometrically by measuring the decrease in extinction at 340 nm that accompanies the oxidation of NADPH during the overall reaction. The enzyme reaction mixture contained 100 mM KH2PO4 (pH 6.6), 1 mM EDTA, 1 mM dithiothreitol (DTT), 0.10 mM acetylCoA, 0.20 mM NADPH, ˜3 μg FAS and escalating concentrations of inhibitor to be tested were combined in a final volume of 1 mL and assayed at 37° C. for 5 min to monitor malonylCoA-independent oxidation of NADPH. FAS activity was then initiated by addition of 0.2 mM malonyl-CoA."}, "[4]": {"system": "AMP-activated protein kinase (AMPK)", "assay": "AMPK activation (pAMPK Western blot) in MCF 7 cells at varying glucose and oxygen", "format": "cell-based, human", "details": "MCF 7, 1 mM or 5 mM glucose, 1% or 21% oxygen, FIGS. 12, 13", "experimental": "FIG. 12 A illustrates the effects of varying oxygen and glucose concentrations on AMPK activation over time in the presence of C31 in MCF 7 cells.\nDetermination of AMP-activated protein kinase status was carried out using the procedure described above. Cells were grown in 6-well plates at 5×10^4 per well and incubated overnight. Cells were cultured in 1 mM or 5 mM glucose at either 1% or 21% (ambient) oxygen levels. These conditions were employed for treatment with vehicle, C31, or Riv7d. Following drug treatment, the cells were harvested in Laemmli buffer and boiled for 5 minutes. Proteins were separated on a 4-15% SDS-PAGE gradient gel and transferred to a nitrocellulose membrane. Antibodies to pAMPK and AMPK were obtained from Cell Signaling."}, "MCF7 cells [5]": {"system": "MCF7 cells", "assay": "14C-acetate incorporation into lipids in MCF7 cells", "format": "cell-based, human", "details": "for IC50: Homo sapiens, MCF7 cells", "experimental": "(§4) MCF7 human breast cancer cells (a cell line which overexpresses FAS) were cultured in DMEM containing 5 mM glucose medium with 10% fetal calf serum, 0.01 mg/ml insulin and 1% penicillin/streptomycin. For measurement of fatty acid synthesis cells were cultured in 24-well plates at 5×10^4 per well and incubated overnight. Fatty acid synthesis was assayed by a 2 h pulse of [U^14C]acetate, 1 μCi/well, followed by Folch extraction and scintillation counting. Test compounds were added with the addition of drugs as described. Controls were treated with DMSO alone.\nas §4, with “cells” for “cells (a cell line which overexpresses FAS)”, “containing 1 mM or” for “containing”, “glucose in the” for “glucose”, “penicillin/streptomycin. The cells were grown in two oxygen conditions, normoxia (21% 02) or hypoxia (1% 02).” for “penicillin/streptomycin.”, “counting” for “counting. Test compounds were added”"}}, "note": "Like-named read-outs stand apart in the source and are kept apart here."}
{"smiles": "CCCCCCCCC1(C)SC(=O)C=C1OCC(=O)Nc1ccc(Cl)cc1", "note": "(stereo not shown) [Compound C31]", "values": [{"measurement": "CC50", "setting": "[1]", "result": "3.3 to 16.7", "unit": "µg/mL"}, {"measurement": "CC50", "setting": "[2]", "result": "6 to 8.1", "unit": "µg/mL"}, {"measurement": "mitochondrial membrane potential (JC-1 staining)", "setting": "MCF7 cells [3]; MCF7, standard conditions, FIGS. 6, 7", "result": "rapid and profound effect on altering mitochondrial membrane potential"}, {"measurement": "mitochondrial membrane polarization (JC-1 staining)", "setting": "MCF7 cells [3]; MCF7, varying glucose and oxygen, FIG. 11", "result": "reductions in mitochondrial membrane polarization"}, {"measurement": "IC50", "setting": "purified rat liver FAS", "result": 42, "unit": "µM"}, {"measurement": "IC50", "setting": "purified rat liver FAS; approximate", "result": "~41", "unit": "µM"}, {"measurement": "AMPK phosphorylation (quantitative Western blots)", "setting": "[4]", "result": "increased phosphorylation of AMPK"}, {"measurement": "IC50", "setting": "MCF7 cells [5]; first experiment, FIG. 1", "result": 17, "unit": "µg/mL"}, {"measurement": "IC50", "setting": "MCF7 cells [5]; second experiment", "result": 13.6, "unit": "µM"}, {"measurement": "inhibition of FAS activity (14C-acetate incorporation)", "setting": "MCF7 cells [5]; MCF7, 1 mM or 5 mM glucose, 21% or 1% O2, FIG. 14", "result": "increasingly effective at inhibiting FAS activity"}]}
